Experiment [1] relates to A375P cell line (melanoma). In words: Proliferation inhibition activity against A375P cell line (MTT assay). To be noted: A375P melanoma cells; for GI50: MTT assay; for effects against A375P: statement in words. Type of experiment: cell-based. How it is done:
Measurement of Proliferation Inhibition Activity Against A375P Cell Line (Melanoma)
An A375P cell line purchased from ATCC was cultured in a DMEM medium [containing 10% FBS, 1% penicillin/streptomycin] at 37° C. in the presence of 5% CO2. The cultured A375P cell line was taken using 0.05% trypsin-0.02% EDTA, and seeded into a 96-well plate at a density of 5×10^3 cells per well.
Cell viability was measured using an MTT [3-(4,5-dimethylthiazol-2-yl)-2,5-diphenyltetrazolium bromide] assay (CellTiter 96 Assay, Promega) as follows. 15 μl of dye was placed per well, the cells were cultured for 2 hours, and then treated with 100 μl of a stop solution, and after 24 hours, absorbance was measured. One day after plating, they were treated with compounds. For treatment with compounds, […] of stock was prepared, and serially diluted to one-third in dimethyl sulfoxide (DMSO) to prepare a 12-point test compound plate, and 0.5 μl was added (final concentration DMSO 0.5%).
In the following Tables 1 to 3, in a case of GI50 being 10 to 30 μM, it was indicated as (+), in a case of it being 1 to 10 μM, it was indicated as (++), and in case of being less than 1 μM, it was indicated as (+++).
(Tetrazolium dyes change colour on reduction, which living cells bring about.)

The target in the next experiment is FMS (Homo sapiens, UniProt P07333). The experiment is described as follows: Kinase panel screening. It counts as biochemical. The method, then:
(§1) Using the compound of Example 43 (1-(4-((4-ethylpiperazine-1-yl)methyl)-3-(trifluoromethyl)phenyl)-3-(4-(2-oxo-2,3-dihydro-1H-thieno[3,4-b][1,4]diazepine-4-yl)phenyl)urea), kinase panel screening was conducted against 35 kinds of kinases at a concentration of 10 μM, and the results are shown in the following Tables 4 and 5 (percentages of enzymatic inhibitions exerted by compound 43 (10 μM) on 30 selected protein kinases).
(§2) Further, the IC50 values (50% inhibition concentration) of the compound of Example 43 against various kinases were calculated using GraphPad Prism 4.0 software, and the results are shown in the following Table 6.

The next experiment has as its target LCK (Homo sapiens, UniProt P06239). In words: Kinase panel screening. It counts as biochemical. How it is done: as §1, §2
A further experiment has as its target TIE2/TEK (Homo sapiens, UniProt Q02763). In words: Kinase panel screening. It counts as biochemical. How it is done:
as §1, §2

Another experiment addresses CDK1/cyclin B (Homo sapiens, UniProt P06493). The experiment is described as follows: Kinase panel screening. Type of experiment: biochemical. How it is done:
as §1, §2

The target in the next experiment is EGFR (Homo sapiens, UniProt P00533). In words: Kinase panel screening. It counts as biochemical. How it is done:
as §1, §2

In the next experiment the target is KDR/VEGFR2 (Homo sapiens, UniProt P35968). The experiment is described as follows: Kinase panel screening. Conditions: KDR/VEGFR2, 10 μM. It counts as biochemical. How it is done: as §1, §2
Another experiment addresses BRAF (V599E) (Homo sapiens, UniProt P15056, V600E). In words: Kinase panel screening. It counts as biochemical. How it is done: as §1, §2
In the next experiment the target is FGFR1 (Homo sapiens, UniProt P11362). The experiment is described as follows: Kinase panel screening. It counts as biochemical. Conditions: FGFR1, 10 μM. How it is done:
as §1, §2

Another experiment has as its target RET (Homo sapiens, UniProt P07949). The experiment is described as follows: Kinase panel screening. Type of experiment: biochemical. How it is done:
as §1, §2

Another experiment deals with PDGFRa (Homo sapiens, UniProt P16234). The experiment is described as follows: Kinase panel screening. Type of experiment: biochemical. The method, then:
as §1, §2

The next experiment has as its target ROS/ROS1 (Homo sapiens, UniProt P08922). In words: Kinase panel screening. Type of experiment: biochemical. Conditions: ROS/ROS1, 10 μM. How it is done:
as §1, §2

In another experiment the target is c-Kit (Homo sapiens, UniProt P10721). The experiment is described as follows: Kinase panel screening. It counts as biochemical. The method, then: as §1, §2
A further experiment addresses ERK1 (Homo sapiens, UniProt P27361). In words: Kinase panel screening. It counts as biochemical. To be noted: ERK1, 10 μM. The method, then: as §1, §2
The next experiment concerns the target RAF1 (Homo sapiens, UniProt P04049). The experiment is described as follows: Kinase panel screening. Type of experiment: biochemical. Conditions: RAF1, 10 μM. How it is done: as §1, §2
A further experiment has as its target Aurora A (Homo sapiens, UniProt O14965). The experiment is described as follows: Kinase panel screening. Type of experiment: biochemical. The method, then:
as §1, §2

The target in another experiment is ALK (Homo sapiens, UniProt Q9UM73). The experiment is described as follows: Kinase panel screening. Type of experiment: biochemical. How it is done:
as §1, §2

Another experiment concerns the target FGFR3 (Homo sapiens, UniProt P22607). The experiment is described as follows: Kinase panel screening. Type of experiment: biochemical. Conditions: FGFR3, 10 μM. The method, then: as §1, §2
A further experiment concerns the target P38a/MAPK14 (Homo sapiens, UniProt Q16539). The experiment is described as follows: Kinase panel screening. It counts as biochemical. To be noted: P38a/MAPK14, 10 μM. The method, then:
as §1, §2

Another experiment concerns the target c-MET (Homo sapiens, UniProt P08581). The experiment is described as follows: Kinase panel screening. It counts as biochemical. How it is done:
as §1, §2

In the next experiment the target is IGF1R (Homo sapiens, UniProt P08069). The experiment is described as follows: Kinase panel screening. Type of experiment: biochemical. The method, then:
as §1, §2

The target in another experiment is GSK3b (Homo sapiens, UniProt P49841). The experiment is described as follows: Kinase panel screening. It counts as biochemical. How it is done: as §1, §2
The next experiment deals with ITK (Homo sapiens, UniProt Q08881). The experiment is described as follows: Kinase panel screening. Type of experiment: biochemical. The method, then:
as §1, §2

The next experiment addresses FAK/PTK2 (Homo sapiens, UniProt Q05397). In words: Kinase panel screening. Type of experiment: biochemical. Conditions: FAK/PTK2, 10 μM. How it is done: as §1, §2
Another experiment deals with FLT4/VEGFR3 (Homo sapiens, UniProt P35916). The experiment is described as follows: Kinase panel screening. Type of experiment: biochemical. To be noted: FLT4/VEGFR3, 10 μM. The method, then:
as §1, §2

In a further experiment the target is SYK (Homo sapiens, UniProt P43405). The experiment is described as follows: Kinase panel screening. It counts as biochemical. How it is done: as §1, §2
For a further experiment, the target named is FLT1/VEGFR1 (Homo sapiens, UniProt P17948). In words: Kinase panel screening. Conditions: FLT1/VEGFR1, 10 μM. Type of experiment: biochemical. The method, then:
as §1, §2

Another experiment deals with AKT1 (Homo sapiens, UniProt P31749). The experiment is described as follows: Kinase panel screening. It counts as biochemical. Conditions: AKT1, 10 μM. How it is done:
as §1, §2

The next experiment has as its target CDK2/cyclin E (Homo sapiens, UniProt P24941). The experiment is described as follows: Kinase panel screening. Type of experiment: biochemical. The method, then: as §1, §2
Another experiment addresses LYN (Homo sapiens, UniProt P07948). In words: Kinase panel screening. Type of experiment: biochemical. How it is done: as §1, §2
In another experiment the target is PDGFRb (Homo sapiens, UniProt P09619). The experiment is described as follows: Kinase panel screening. It counts as biochemical. How it is done: as §1, §2
The next experiment deals with FGFR2 (Homo sapiens, UniProt P21802). In words: Kinase panel screening. Type of experiment: biochemical. Conditions: FGFR2, 10 μM. The method, then:
as §1, §2

A further experiment has as its target c-Src (Homo sapiens, UniProt P12931). In words: Kinase panel screening. Type of experiment: biochemical. How it is done: as §1, §2
The target of another experiment is BRAF (Homo sapiens, UniProt P15056). In words: Kinase panel screening. Type of experiment: biochemical. The method, then: as §1, §2
The target in the next experiment is FLT3 (Homo sapiens, UniProt P36888). In words: Kinase panel screening. It counts as biochemical. To be noted: FLT3, 10 μM. The method, then: as §1, §2
A further experiment concerns the target MEK1 (Homo sapiens, UniProt Q02750). In words: Kinase panel screening. Type of experiment: biochemical. To be noted: MEK1, 10 μM. The method, then: as §1, §2
The mark [2] stands for this setting: read-out: GI50 value against A375P.

Each structure is given as a SMILES string. Where two headings read alike, the source gives them in different places.

EGFR, sequence (P00533 25-1210): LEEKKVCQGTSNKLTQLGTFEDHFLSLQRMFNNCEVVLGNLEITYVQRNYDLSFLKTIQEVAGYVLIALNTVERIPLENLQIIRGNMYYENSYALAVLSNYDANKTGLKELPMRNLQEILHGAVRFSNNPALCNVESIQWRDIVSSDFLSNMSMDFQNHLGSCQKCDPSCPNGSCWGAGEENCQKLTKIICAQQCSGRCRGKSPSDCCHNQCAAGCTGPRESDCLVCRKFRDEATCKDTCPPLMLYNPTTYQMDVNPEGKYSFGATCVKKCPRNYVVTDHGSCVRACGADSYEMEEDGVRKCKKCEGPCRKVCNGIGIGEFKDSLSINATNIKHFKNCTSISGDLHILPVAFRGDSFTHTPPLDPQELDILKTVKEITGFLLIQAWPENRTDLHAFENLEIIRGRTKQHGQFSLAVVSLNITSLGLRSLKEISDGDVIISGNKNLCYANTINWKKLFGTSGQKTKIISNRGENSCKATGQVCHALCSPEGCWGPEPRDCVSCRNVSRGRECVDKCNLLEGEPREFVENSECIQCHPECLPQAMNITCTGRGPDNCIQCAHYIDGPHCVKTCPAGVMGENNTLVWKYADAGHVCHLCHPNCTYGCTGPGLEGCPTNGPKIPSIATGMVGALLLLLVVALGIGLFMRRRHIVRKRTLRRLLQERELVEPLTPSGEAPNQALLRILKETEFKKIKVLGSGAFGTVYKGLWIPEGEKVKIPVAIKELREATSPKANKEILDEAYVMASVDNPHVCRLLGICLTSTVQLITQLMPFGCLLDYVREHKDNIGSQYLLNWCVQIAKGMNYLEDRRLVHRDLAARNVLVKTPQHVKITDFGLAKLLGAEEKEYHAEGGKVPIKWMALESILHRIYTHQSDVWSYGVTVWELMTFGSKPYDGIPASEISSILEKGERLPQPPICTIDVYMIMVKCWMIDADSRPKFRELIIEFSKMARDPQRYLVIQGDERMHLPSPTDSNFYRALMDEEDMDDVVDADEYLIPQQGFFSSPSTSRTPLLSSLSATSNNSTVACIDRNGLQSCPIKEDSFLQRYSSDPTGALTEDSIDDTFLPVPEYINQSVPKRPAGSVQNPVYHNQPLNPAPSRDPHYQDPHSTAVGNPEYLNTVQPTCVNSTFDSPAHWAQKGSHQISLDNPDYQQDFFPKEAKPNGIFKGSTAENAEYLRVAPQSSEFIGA
FMS, sequence (P07333 20-972): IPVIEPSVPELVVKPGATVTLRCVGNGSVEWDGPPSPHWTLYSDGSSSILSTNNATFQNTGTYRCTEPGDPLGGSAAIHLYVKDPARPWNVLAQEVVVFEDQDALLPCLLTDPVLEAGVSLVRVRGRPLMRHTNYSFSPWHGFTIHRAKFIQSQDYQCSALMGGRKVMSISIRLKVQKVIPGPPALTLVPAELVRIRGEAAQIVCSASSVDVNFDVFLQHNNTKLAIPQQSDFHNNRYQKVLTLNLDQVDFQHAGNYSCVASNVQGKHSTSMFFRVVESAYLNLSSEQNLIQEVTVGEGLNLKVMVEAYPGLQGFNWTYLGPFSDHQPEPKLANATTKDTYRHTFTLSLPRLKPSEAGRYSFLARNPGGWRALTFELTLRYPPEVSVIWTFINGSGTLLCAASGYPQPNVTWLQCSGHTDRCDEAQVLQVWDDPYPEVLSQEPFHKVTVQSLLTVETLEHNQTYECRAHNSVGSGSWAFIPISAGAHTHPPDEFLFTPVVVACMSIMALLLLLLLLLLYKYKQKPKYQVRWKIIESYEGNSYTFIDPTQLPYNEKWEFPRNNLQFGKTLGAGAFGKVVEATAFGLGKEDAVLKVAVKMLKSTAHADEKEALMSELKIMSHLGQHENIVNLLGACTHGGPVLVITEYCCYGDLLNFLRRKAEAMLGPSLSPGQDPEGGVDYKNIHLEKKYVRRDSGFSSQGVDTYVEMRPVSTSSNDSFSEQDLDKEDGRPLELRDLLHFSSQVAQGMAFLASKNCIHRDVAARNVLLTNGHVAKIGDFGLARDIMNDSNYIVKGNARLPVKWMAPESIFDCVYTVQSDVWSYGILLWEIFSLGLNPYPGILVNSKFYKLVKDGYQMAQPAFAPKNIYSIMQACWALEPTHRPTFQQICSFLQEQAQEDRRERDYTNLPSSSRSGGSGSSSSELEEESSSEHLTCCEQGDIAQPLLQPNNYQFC
RET, sequence (P07949 29-1114, species assumed): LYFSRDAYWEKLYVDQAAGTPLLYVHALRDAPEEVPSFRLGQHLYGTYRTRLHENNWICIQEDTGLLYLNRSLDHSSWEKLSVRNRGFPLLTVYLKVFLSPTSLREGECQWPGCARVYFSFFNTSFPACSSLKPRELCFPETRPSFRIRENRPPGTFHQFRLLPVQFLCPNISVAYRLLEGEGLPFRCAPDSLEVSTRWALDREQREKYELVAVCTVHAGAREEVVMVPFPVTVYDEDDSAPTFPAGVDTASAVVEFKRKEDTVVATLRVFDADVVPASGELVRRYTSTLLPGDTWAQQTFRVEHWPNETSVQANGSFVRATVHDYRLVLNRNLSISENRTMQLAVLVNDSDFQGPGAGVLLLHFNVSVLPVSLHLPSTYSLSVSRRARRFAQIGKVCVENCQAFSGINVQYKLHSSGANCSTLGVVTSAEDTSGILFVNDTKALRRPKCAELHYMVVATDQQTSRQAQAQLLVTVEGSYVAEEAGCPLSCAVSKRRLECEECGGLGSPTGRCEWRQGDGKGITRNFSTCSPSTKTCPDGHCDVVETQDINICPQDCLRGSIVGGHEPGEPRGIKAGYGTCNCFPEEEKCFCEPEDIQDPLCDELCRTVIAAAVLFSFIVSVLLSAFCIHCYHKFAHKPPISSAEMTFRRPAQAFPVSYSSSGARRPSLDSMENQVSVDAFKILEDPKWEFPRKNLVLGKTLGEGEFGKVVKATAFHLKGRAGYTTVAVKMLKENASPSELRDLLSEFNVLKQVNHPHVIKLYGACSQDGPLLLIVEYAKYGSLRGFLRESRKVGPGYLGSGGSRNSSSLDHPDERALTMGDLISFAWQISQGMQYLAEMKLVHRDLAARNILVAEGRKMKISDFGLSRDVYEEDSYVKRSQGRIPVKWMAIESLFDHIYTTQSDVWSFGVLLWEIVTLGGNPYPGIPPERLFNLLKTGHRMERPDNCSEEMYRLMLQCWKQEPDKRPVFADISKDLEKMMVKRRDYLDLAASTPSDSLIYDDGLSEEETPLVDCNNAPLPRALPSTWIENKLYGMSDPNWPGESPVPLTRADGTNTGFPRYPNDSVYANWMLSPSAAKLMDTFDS
PDGFRa, sequence (P16234 24-1089, species assumed): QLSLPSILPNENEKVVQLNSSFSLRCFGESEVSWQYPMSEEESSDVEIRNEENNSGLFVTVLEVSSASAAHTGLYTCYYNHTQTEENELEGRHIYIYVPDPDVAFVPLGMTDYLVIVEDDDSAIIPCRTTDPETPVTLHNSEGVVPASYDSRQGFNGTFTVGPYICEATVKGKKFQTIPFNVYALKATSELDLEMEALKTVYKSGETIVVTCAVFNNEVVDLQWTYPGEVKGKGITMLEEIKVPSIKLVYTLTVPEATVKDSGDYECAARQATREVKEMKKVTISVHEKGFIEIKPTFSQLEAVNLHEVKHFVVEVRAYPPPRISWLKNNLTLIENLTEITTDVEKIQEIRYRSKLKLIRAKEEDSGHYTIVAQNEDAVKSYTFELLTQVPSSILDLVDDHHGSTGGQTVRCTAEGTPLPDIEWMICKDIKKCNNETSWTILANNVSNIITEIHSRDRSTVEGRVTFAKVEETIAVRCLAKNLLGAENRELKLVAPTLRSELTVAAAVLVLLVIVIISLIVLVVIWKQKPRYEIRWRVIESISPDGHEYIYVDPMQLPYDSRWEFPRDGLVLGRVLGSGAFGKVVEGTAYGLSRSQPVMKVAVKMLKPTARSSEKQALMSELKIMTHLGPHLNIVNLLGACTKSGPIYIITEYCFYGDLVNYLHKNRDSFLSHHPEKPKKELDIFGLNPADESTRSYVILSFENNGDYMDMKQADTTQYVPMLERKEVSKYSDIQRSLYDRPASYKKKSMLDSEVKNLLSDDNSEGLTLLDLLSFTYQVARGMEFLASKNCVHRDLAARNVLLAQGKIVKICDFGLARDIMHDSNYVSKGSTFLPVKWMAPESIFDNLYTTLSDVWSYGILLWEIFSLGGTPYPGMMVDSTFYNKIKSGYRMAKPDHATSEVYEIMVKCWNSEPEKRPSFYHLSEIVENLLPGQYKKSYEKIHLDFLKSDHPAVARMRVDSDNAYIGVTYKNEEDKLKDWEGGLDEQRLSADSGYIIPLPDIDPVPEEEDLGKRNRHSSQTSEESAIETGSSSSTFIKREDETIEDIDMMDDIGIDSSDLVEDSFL
AKT1, sequence (P31749 whole entry): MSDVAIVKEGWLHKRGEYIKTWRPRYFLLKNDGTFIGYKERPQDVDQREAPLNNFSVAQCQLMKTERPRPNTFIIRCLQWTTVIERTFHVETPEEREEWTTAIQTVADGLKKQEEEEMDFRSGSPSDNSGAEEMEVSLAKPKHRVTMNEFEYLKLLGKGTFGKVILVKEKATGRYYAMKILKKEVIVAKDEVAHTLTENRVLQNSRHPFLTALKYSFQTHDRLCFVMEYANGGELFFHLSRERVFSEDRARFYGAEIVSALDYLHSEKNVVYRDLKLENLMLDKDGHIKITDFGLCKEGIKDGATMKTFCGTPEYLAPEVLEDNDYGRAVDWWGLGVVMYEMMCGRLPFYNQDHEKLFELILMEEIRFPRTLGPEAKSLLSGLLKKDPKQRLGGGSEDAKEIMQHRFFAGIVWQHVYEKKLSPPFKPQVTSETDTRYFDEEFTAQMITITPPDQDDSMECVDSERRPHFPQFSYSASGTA

Take `CCN1CCN(Cc2ccc(NC(=O)Nc3ccc(C4=Nc5cscc5NC(=O)C4)cc3)cc2C(F)(F)F)CC1` [Example 43, 1-(4-((4-ethylpiperazine-1-yl)methyl)-3-(trifluoromethyl)phenyl)-3-(4-(2-oxo-2,3-dihydro-1H-thieno[3,4-b][1,4]diazepine-4-yl)phenyl)urea]: the GI50 in experiment [1] (read-out: A375P (GI50)) is below 1 µM; in [1] (setting [2]), 1.45 µM. The “effects against A375P” value in [1] was “significant effects”. The inhibition at 10 µM came out at 100% against FMS; 79.3% at LCK; 64.9% at TIE2/TEK; 2.68% against CDK1/cyclin B; 24.8% against EGFR; 60.2% against KDR/VEGFR2. In addition, the inhibition at 10 µM at BRAF (V599E) stood at 43.9%; against FGFR1 it was 34.4%; against RET it was 99.1%; on PDGFRa, 85.9%; on ROS/ROS1, 3.71%; on c-Kit, 85.9%. For the same molecule, the inhibition at 10 µM on ERK1 amounted to 1.22%; on RAF1 it was 86.2%; against Aurora A it was 20.4%; on ALK, 41%; against FGFR3, 45%; on P38a/MAPK14, 89.9%. Also, the inhibition at 10 µM at c-MET stood at 21.7%; on IGF1R it was 1.34%; on GSK3b it was 8.62%; at ITK, 20.7%; on FAK/PTK2, 41.2%; on FLT4/VEGFR3, 95.8%. In addition, the inhibition at 10 µM on SYK is 57.4%; at FLT1/VEGFR1, 79.1%; on AKT1, 3.23%; against CDK2/cyclin E, 0.28%; at LYN it was 89.4%; on PDGFRb, 96.1%. Moreover, the inhibition at 10 µM against FGFR2 is 29.9%; against c-Src it was 55.2%; against BRAF it was 32%; on FLT3 it was 98.9%; against MEK1 it was 5.26%.
As for `O=C1CC(c2cccc(NC(=O)Nc3ccc(Cl)cc3)c2)=Nc2cscc2N1` [Example 47, 1-(4-chlorophenyl)-3-(3-(2-oxo-2,3-dihydro-1H-thieno[3,4-b][1,4]diazepine-4-yl)phenyl)urea], the GI50 in [1] (read-out: A375P (GI50)) is 1 to 10 µM.
Turning to `O=C1CC(c2cccc(NC(=O)Nc3cccc(Cl)c3)c2)=Nc2cscc2N1` [Example 48, 1-(3-chlorophenyl)-3-(3-(2-oxo-2,3-dihydro-1H-thieno[3,4-b][1,4]diazepine-4-yl)phenyl)urea], in experiment [1] (read-out: A375P (GI50)), the GI50 is below 1 µM. In [1], the “effects against A375P” value is reported as “significant effects”.
Taken in the same sequence, the figures for `CCN1CCN(Cc2ccc(NC(=O)Nc3cccc(C4=Nc5cscc5NC(=O)C4)c3)cc2C(F)(F)F)CC1` [Example 49, 1-(4-((4-ethylpiperazine-1-yl)methyl)-3-(trifluoromethyl)phenyl)-3-(3-(2-oxo-2,3-dihydro-1H-thieno[3,4-b][1,4]diazepine-4-yl)phenyl)urea] were below 1 µM and “significant effects”.
`O=C1CC(c2cccc(NC(=O)Nc3ccc(Cl)c(Cl)c3)c2)=Nc2cscc2N1` [Example 50, 1-(3,4-dichlorophenyl)-3-(3-(2-oxo-2,3-dihydro-1H-thieno[3,4-b][1,4]diazepine-4-yl)phenyl)urea]: the GI50 in [1] (read-out: A375P (GI50)) was 1 to 10 µM.
Regarding `O=C1CC(c2cccc(NC(=O)Nc3cc(Cl)cc(Cl)c3)c2)=Nc2cscc2N1` [Example 51, 1-(3,5-dichlorophenyl)-3-(3-(2-oxo-2,3-dihydro-1H-thieno[3,4-b][1,4]diazepine-4-yl)phenyl)urea], the GI50 in [1] (read-out: A375P (GI50)) lay within 10 to 30 µM.
Still for that read-out and setting: as for `O=C1CC(c2cccc(NC(=O)Nc3ccccc3F)c2)=Nc2cscc2N1` [Example 52, 1-(2-fluorophenyl)-3-(3-(2-oxo-2,3-dihydro-1H-thieno[3,4-b][1,4]diazepine-4-yl)phenyl)urea], the figure is 10 to 30 µM.
With `CNC(=O)c1cc(Oc2ccc(NC(=O)Nc3ccc(Cl)c(C(F)(F)F)c3)cc2)ccn1` [Sorafenib, reference compound], the GI50 in [1] (setting [2]) stood at 2.74 µM.

One may read the GI50 as the concentration that inhibits growth by half. Broadly, the inhibition is the drop in the measured response relative to a control, in per cent. Read a low inhibition as little suppression.

The record behind these values is US10174047B2, “Thienodiazepine derivatives or pharmaceutically acceptable salts thereof, and pharmaceutical composition including the same as an active ingredient” (Industry-University Cooperation Foundation Hanyang …, priority 2015, dated 2019).
